In patent US8709710B2, “Methods of modulating interleukin-22 and immune response by notch regulators” (Deutsches Rheuma-Forschungszentrum Berlin, priority 2009, dated 2014):

System: human T helper cells
Assay: IL-22 expression in human T helper cells activated with anti-CD3/anti-CD28 microparticles and recombinant Delta-like 4
Type: cell-based
Conditions: increasing concentrations of Delta-like 4 on microparticles; no antigen-presenting cells; restimulated after 5 days; FIG. 6
Procedure: Naive, i.e. antigen-inexperienced, human T helper cells are activated in the absence of antigen-presenting cells with microparticles loaded with stimulating anti-CD3 and anti-CD28 antibodies and increasing concentrations of recombinantly produced Delta-like 4. After 5 days the cells are restimulated and the expression of IL-22 is analyzed.

Delta-like 4: recombinantly produced Notch ligand Delta-like 4, loaded on microparticles
expression of IL-22: concentration-dependent expression of IL-22
